Laboratory results: patent EP0937734B1, “11-Acetyl-12,13-dioxabicyclo ¬8.2.1 tridecenone derivatives, process for making them and pharmaceutical compositions containing them” (Abbott Products GmbH, priority 1998, dated 1999)

Assays:
[1] = In vivo determination of the influence on the resting tone of the lower oesophageal sphincter (pull-through manometry); parameters: species or system Beagle-Hunden
Source text: 3. In-vivo-Bestimmung des Einflusses der Substanzen auf den Ruhe-Tonus des unteren Oesophagus Sphincter.
Diese Bestimmung wird an männlichen, wachen, nüchternen Beagle-Hunden vorgenommen, denen vor Versuchsbeginn je eine Oesophagus-Fistel und eine Duodenal-Kanüle gelegt worden sind. Der Druck des unteren Oesophagus Sphincter wird mittels eines perfundierten Kathetersystems mit seitlicher Öffnung, das mit einem Druckaufnehmer und einem Recorder verbunden ist, gemessen. Der Katheter wird über die Oesophagus-Fistel in den Magen geführt und dann langsam manuell zurückgezogen (= Durchzugsmanometrie). Beim Passieren des Katheterteils mit der seitlichen Öffnung durch die Hochdruckzone des unteren Oesophagus Sphincter wird ein Peak registriert. Aus diesem Peak wird der Druck in mm Hg bestimmt.
Auf diese Weise wird zunächst als Kontrollwert der basale Druck des Oesophagus Sphincter bestimmt. Anschließend wird die Testsubstanz oral appliziert und nach 15 min. wird der Druck am unteren Oesophagus Sphincter in 2-Minuten-Intervallen über einen Zeitraum von 60 min. gemessen. Die Steigerung des Druckes nach Testsubstanzgabe im Vergleich zu dem vorbestimmten basalen Druck wird berechnet.
In diesem Test nahm der basale Tonus des Oesophagus Sphincter durch eine Dosis von 2,15 µMol/kg der Substanz des Beispiels 1 um 143 % zu. Dieser Effekt hielt während der gesamten Testdauer von 60 min. an.

[2] = In vivo determination of the influence on gastric tone (barostat, gastric volume at constant pressure after lipid-induced relaxation); parameters: species or system Beagle-Hunden
Source text: 2. In-vivo-Bestimmung des Einflusses der Substanzen auf den Magentonus
Der Magentonus spielt eine wichtige Rolle bei der Magenentleerung. Ein erhöhter Magentonus trägt zu einer beschleunigten Magenentleerung bei.
Der Einfluß von Substanzen auf den Magentonus wird an Beagle-Hunden mit Hilfe eines Barostaten bestimmt, welcher mit einem Kunststoffbeutel im Magen des Hundes verbunden ist und die Messung von Volumen oder Druck im Magen des Hundes ermöglicht. Mit dem Barostaten wird das Magenvolumen bei konstantem Druck im Magen oder der Magendruck bei konstantem Volumen im Magen bestimmt. Bei Erhöhung des Magentonus stellt man bei einem bestimmten Druck ein verringertes Magenvolumen fest und einen erhöhten Druck bei einem bestimmten Volumen. In dem zur Untersuchung der durch die Substanzen bewirkten Erhöhung des Magentonus verwendeten Testmodell wird die durch die Substanzen verursachte Magenvolumenänderung bei konstantem Druck gemessen. Der Magen der Versuchstiere wird durch Lipideinnahme relaxiert, d. h. der Magentonus sinkt, wodurch das Magenvolumen entsprechend zunimmt. Als Maß für die den Magentonus erhöhende Wirkung der Substanzen wird die nach Substanzeinnahme durch Wiederanstieg des Magentonus eintretende Reduktion des durch Lipidgabe vergrößerten Magenvolumens in % gemessen. […]

[3] = biological target: T1, Motilin-Rezeptoren (Oryctolagus cuniculus, UniProt G1T803); test: Binding of test substances to motilin receptors (displacement of 125I-labelled motilin, crude membrane preparation from rabbit antrum); parameters: species or system Kaninchen; settings: displacement of iodinated motilin (50 pM), rabbit antrum membrane fraction, 60 min at 30 °C; calculated from IC50
T1 construct: Die so erhaltene Gewebefraktion, welche als "rohe Membranzubereitung" bezeichnet wird, wird für den Test eingesetzt; from tissue; host or cells: rabbit antrum freed of mucosa, crude membrane fraction
Source text: 1. Bestimmung des Bindungsvermögens der Testsubstanzen an Motilin-Rezeptoren.
Die Affinität der Verbindungen der Formel I an Motilin-Rezeptoren wird in vitro an einer Fraktion eines Gewebehomogenats aus dem Kaninchenantrum gemessen. Bestimmt wird die Verdrängung von radioaktiv markiertem jodiertem Motilin aus der Motilin-Rezeptor-Bindung durch die Testsubstanzen.
Die Rezeptor-Bindungsstudien werden nach einer Modifikation der Methode von Borman et al. (Regulatory Peptides 15 (1986), 143-153) durchgeführt. Zur Herstellung des ^125Jodmarkierten Motilins wird Motilin auf an sich bekannte Weise, z. B. analog der von Bloom et al. (Scand. J. Gastroenterol. 11 (1976) 47 - 52) beschriebenen Methode enzymatisch unter Verwendung von Lactoperoxidase jodiert.
Zur Gewinnung der in dem Test verwendeten Gewebehomogenatfraktion aus dem Kaninchenantrum wird das von Schleimhäuten befreite Antrum zerkleinert und im 10-fachen Volumen einer kalten Homogenisierungspufferlösung (50 mM Tris-HCl-Puffer, 250 mM Sucrose, 25 mM KCl, 10 mM MgCl2, pH 7,4) mit Zusatz von Inhibitoren (1 mM Jodacetamid, 1 µM Pepstatin, 0,1 mM Methylsulfonylfluorid, 0,1 g/l Trypsininhibitor, 0,25 g/l Bacitracin) mit einem Homogenisator 15 sec. bei 1500 Umdrehungen pro Minute homogenisiert. […]

T1 sequence (G1T803 1-400): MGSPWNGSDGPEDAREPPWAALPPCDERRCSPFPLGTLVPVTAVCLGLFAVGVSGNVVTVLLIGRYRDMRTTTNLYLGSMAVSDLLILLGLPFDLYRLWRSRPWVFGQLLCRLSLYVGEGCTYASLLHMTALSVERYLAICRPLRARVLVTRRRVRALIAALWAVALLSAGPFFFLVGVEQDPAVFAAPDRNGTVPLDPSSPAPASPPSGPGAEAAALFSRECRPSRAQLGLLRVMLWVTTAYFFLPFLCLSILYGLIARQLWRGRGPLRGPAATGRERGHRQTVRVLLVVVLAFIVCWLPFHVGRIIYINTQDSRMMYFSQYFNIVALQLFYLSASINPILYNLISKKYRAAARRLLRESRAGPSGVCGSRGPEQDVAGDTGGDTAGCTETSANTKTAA

Row | IC50 [3] [nM] | SMILES | Duration of the effect on the tone of the Oesophagus Sphincter ([1]; 2,15 µMol/kg oral, effect lasted for the whole test duration) [min] | Zunahme des basalen Tonus des Oesophagus Sphincter ([1]; conscious fasted male Beagle dogs, 2,15 µMol/kg oral, versus basal pressure) [%] | Reduktion des nach Lipidgabe vergrößerten Magenvolumens ([2]; Beagle dogs, 2,15 µmol/kg i.d., constant pressure) | Reduktion des Magenvolumens (Lipid-induzierte Relaxierung des Magenvolumens) ([2]; Beagle dogs, 2,15 µmol/kg oral)
1 | 9.77 | CO[C@]1(C)C[C@H](O[C@H]2[C@H](C)[C@@H](O[C@@H]3O[C@H](C)C[C@H](N(C)C(C)C)[C@H]3O)[C@@]3(C)CC(C)=C(O3)[C@H](C)[C@H](C(C)=O)OC(=O)[C@@H]2C)O[C@@H](C)[C@@H]1O [Beispiel 1, (2R,3S,4S,5R,6R,10R,11R]-3-[(2,6-Didesoxy-3-C-methyl-3-O-methyl-α-L-ribohexopyranosyl)-oxy]-5-[(3,4,6-tridesoxy-3-(N-methyl-N-isopropylamino)-β-D-xylohexopyranosyl)-oxy]-2,4,6,8,10-pentamethyl-11-acetyl-12,13-dioxabicyclo[8.2.1]-tridec-8-en-1-on] | ≥ 60 | 143 | 59,5% | praktisch völlig verhindert
2 | 17.8 | CO[C@]1(C)C[C@H](O[C@H]2[C@H](C)[C@@H](O[C@@H]3O[C@H](C)C[C@H](N(C)C(C)C)[C@H]3OC(C)=O)[C@@]3(C)CC(C)=C(O3)[C@H](C)[C@H](C(C)=O)OC(=O)[C@@H]2C)O[C@@H](C)[C@@H]1O [Beispiel 2, (2R,3S,4S,5R,6R,10R,11R)-3-[(2,6-Didesoxy-3-C-methyl-3-O-methyl-α-L-ribohexopyranosyl)-oxy]-5-[(3,4,6-tridesoxy-2-O-acetyl-3-(N-methyl-N-isopropylamino)-β-D-xylohexopyranosyl)-oxy]-2,4,6,8,10-pentamethyl-11-acetyl-12,13-dioxabicyclo-[8.2.1]tridec-8-en-1-on] |  |  |  | 
